Measurements as given in article PMC3157426 (PLoS ONE, 2011).
Entries after “also recorded” stand apart in the source; their conditions may differ. Like-named read-outs stand apart in the source and are kept apart here.

Assays:
[1] = target: B/Perth/211/01 D197E mutant NA (Influenza B virus, UniProt Q3S340, D197E); type: biochemical, influenza B virus B/Perth/211/01
[2] = target: A/Mississippi/03/01 H1N1 H274Y mutant NA (Influenza A virus, UniProt Q289M4, H275Y); type: biochemical, influenza virus A/Mississippi/03/01 H1N1
[3] = target: A/Fukui/45/04 H3N2 E119V mutant NA (Influenza A virus, UniProt C0IZY2, E119V); type: biochemical, influenza virus A/Fukui/45/04 H3N2
[4] = read-out: IC50 at 10 min, 30' Pre
[5] = read-out: IC50 at 10 min, No pre
[6] = read-out: final IC50 after 60 min, 30' pre
[7] = read-out: final IC50 after 60 min, No pre

Compound	binding phenotype (slow or fast binding) [1]	binding phenotype (slow or fast binding) [2]	binding phenotype (slow or fast binding) [3]	IC50 [2, 4] [nM]	IC50 [2, 5] [nM]	IC50 [2, 6] [nM]	IC50 [2, 7] [nM]	IC50 [3, 4] [nM]	IC50 [3, 5] [nM]	IC50 [3, 6] [nM]	IC50 [3, 7] [nM]	further results
CC(=O)N[C@H]1[C@H]([C@H](O)[C@H](O)CO)OC(C(=O)O)=C[C@@H]1O [DANA, 2-deoxy,2,3-dehydro N-acetyl neuraminic acid]	fast binding	fast binding	fast binding									susceptibility compared to the wild type virus [1]: Some reduced susceptibility
oseltamivir carboxylate		loss of slow binding	fast binding; also recorded: loss of slow binding	1590	1900	2440	2350	122	178	260	208	
CCC(CC)[C@H](NC(C)=O)[C@@H]1[C@H](O)[C@@H](C(=O)O)C[C@H]1N=C(N)N [Peramivir, peramivir]	loss of slow binding	loss of slow binding		100	130	153	196	1.4	154	2.1	21.4	10'/60 (ratio of IC50s), No pre [1]: 2.5; No pre/pre (ratio of 60 min IC50s) [1]: 1.8; IC50 [1, 4]: 3.9 nM; IC50 [1, 5]: 186 nM; IC50 [1, 6]: 41.5 nM; IC50 [1, 7]: 75.2 nM; 10'/60 (ratio of IC50s), No pre [2]: 0.7; 60'/10 (ratio of IC50s), 30' Pre [2]: 1.5; No pre/pre (ratio of 60 min IC50s) [2]: 1.3; 10'/60 (ratio of IC50s), No pre [3]: 7.2; 60'/10 (ratio of IC50s), 30' Pre [3]: 1.5; No pre/pre (ratio of 60 min IC50s) [3]: 10.2
CC(=O)N[C@H]1[C@H]([C@H](O)[C@H](O)CO)OC(C(=O)O)=C[C@@H]1N=C(N)N [Zanamivir, zanamivir]		no impact on the binding kinetics	slow binding phenotype									
